Data on 10 compounds can be found in patent publication US9850283B2, “Macrocyclic inhibitors of the PD-1/PD-L1 and CD80(B7-1)/PD-L1 protein/protein interactions” (BRISTOL-MYERS SQUIBB COMPANY, priority 2013, dated 2017).

The term IC50 denotes the concentration at which inhibition is half-maximal.

One assay addresses T1, Human PD-L1/PD-1 (Homo sapiens, UniProt Q9NZQ7).
T1 construct: made in house; host or cells: HEK293T
The experiment in a line: HTRF PD-1-Ig/PD-L1-His binding assay (human PD-L1). In short, it runs like this:
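HTRF read-out: Eu cryptate anti-Ig mAb 1 nM final, APC anti-His mAb 20 nM final, added over the binding reaction. Proteins were PD-1-Ig and PD-L1-His ectodomain fusions. Buffer was dPBS, 0.1% BSA, 0.05% Tween-20.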
In general terms: In TR-FRET formats the signal depends on donor and acceptor labels being close together.

In assay [1] the target is T2, LK35.2-hPD-L1 cells / PE-labeled PD-1-Ig (Homo sapiens, UniProt Q9NZQ7).
T2 construct: expressed in transfected cells; host or cells: LK35.2 mouse B cell line
The experiment in a line: LK35.2-hPD-L1 cell binding high-content screening assay. It is filed as cell-based. In short, it runs like this:
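Using overnight-cultured LK35.2-hPD-L1 mouse B cells, compound was co-incubated with phycoerythrin-tagged human PD-1-Ig (final 1 nM) at 37 °C for one hour. Unbound label was removed by triple dPBS washing prior to high-content image acquisition and analysis.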

Where [2] appears, read: cluster symbol, read-out: HTRF IC50 cluster.
Where [3] appears, read: cluster symbol, cell line of CBA not given (LK35.2-hPD-L1 or 293T-hPD-L1), read-out: CBA IC50 cluster.
[4] abbreviates: cell binding assay, cell line not given, cluster symbol, read-out: CBA IC50 cluster.

Like-named read-outs stand apart in the source and are kept apart here. Positions of bridges follow the written chain, without caps; N, C: chain ends. Non-standard residues stand in square brackets, D forms with d. Residues, ends and D or L forms follow the SMILES beside them. ξ: configuration not given here. Phe(3,4,5-F3) = N[C@@H](Cc1cc(F)c(F)c(F)c1)C(=O)O; Phe(4-Br) = N[C@@H](Cc1ccc(Br)cc1)C(=O)O; d(cisHyp) = O=C(O)[C@H]1C[C@@H](O)CN1; Bta = N[C@@H](Cc1csc2ccccc12)C(=O)O; Hyp = O=C(O)[C@@H]1C[C@@H](O)CN1; NMeF = CN[C@@H](Cc1ccccc1)C(=O)O; 2Pal = N[C@@H](Cc1ccccn1)C(=O)O; AllylGly = C=CC[C@H](N)C(=O)O; NMeNle = CCCC[C@H](NC)C(=O)O; NMeM = CN[C@@H](CCSC)C(=O)O; dPip = O=C(O)[C@H]1CCCCN1; hSer = N[C@@H](CCO)C(=O)O; NMeA = CN[C@@H](C)C(=O)O; Dab = NCC[C@H](N)C(=O)O; ξC = NC(CS)C(=O)O; Sar = CNCC(=O)O A value given as a limit tells only on which side of the number the result lay.

T1 sequence (Q9NZQ7 with tags, fused parts or gaps): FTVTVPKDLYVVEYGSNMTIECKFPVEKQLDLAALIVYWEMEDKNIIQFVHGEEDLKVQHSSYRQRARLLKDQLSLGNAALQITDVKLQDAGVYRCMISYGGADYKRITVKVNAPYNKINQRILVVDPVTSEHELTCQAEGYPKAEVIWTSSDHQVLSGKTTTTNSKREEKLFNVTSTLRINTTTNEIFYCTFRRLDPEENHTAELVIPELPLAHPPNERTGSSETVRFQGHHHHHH
T2 sequence (Q9NZQ7 19-290): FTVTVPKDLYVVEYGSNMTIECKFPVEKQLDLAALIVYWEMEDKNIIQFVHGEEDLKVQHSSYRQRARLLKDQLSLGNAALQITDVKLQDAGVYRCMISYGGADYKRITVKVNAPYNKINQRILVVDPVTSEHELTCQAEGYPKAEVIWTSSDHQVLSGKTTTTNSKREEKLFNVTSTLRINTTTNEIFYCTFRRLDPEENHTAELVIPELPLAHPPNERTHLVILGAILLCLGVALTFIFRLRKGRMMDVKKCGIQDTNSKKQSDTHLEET

In the case of `CCCC[C@H]1C(=O)N2CCC[C@@H]2C(=O)N[C@@H](CC(=O)O)C(=O)N[C@@H](C(C)C)C(=O)N(C)[C@@H](Cc2ccccc2)C(=O)N[C@@H](CCCCN)C(=O)N2CCC[C@@H]2C(=O)N[C@@H](Cc2c[nH]c3ccccc23)C(=O)N[C@@H](Cc2ccc(O)cc2)C(=O)N[C@@H](CC(C)C)C(=O)N[C@H](C(=O)NCC(N)=O)CSCC(=O)N[C@@H](Cc2ccccc2)C(=O)N(C)[C@@H](Cc2ccccc2)C(=O)N1C` [Example 3187] (HELM PEPTIDE1{[O=C(C[*:3])[*:2]].F.[meF].[CCCC[C@@H](C(=O)[*:2])N(C)[*:1]].[dP].D.V.[meF].K.[dP].W.Y.L.C.G.[am]}$PEPTIDE1,PEPTIDE1,1:R3-14:R3$$$V2.0), the IC50 lay in the range of 6.76 to 30.3 nM on Human PD-L1/PD-1 (setting [2]) and 0.158 to 4.71 nM in assay [1] (setting [3]).
For the compound `CCCC[C@H]1C(=O)N(C)[C@@H](CCCC)C(=O)N[C@@H](CCCNC(=N)N)C(=O)NC(C(=O)NCC(N)=O)CSCC(=O)N[C@@H](Cc2ccc(O)cc2)C(=O)N(C)[C@@H](C)C(=O)N[C@@H](CC(N)=O)C(=O)N2CCC[C@H]2C(=O)N[C@@H](Cc2cnc[nH]2)C(=O)N[C@@H](CCO)C(=O)N2C[C@H](O)C[C@H]2C(=O)N[C@@H](Cc2c[nH]c3ccccc23)C(=O)N[C@@H](CO)C(=O)N[C@@H](Cc2c[nH]c3ccccc23)C(=O)N1C` (some centres unmarked) [Example 9051] ({CH2CO}-Y[NMeA]NPH[hSer][Hyp]WSW[NMeNle][NMeNle]R[ξC]G-NH2; thioether N-14), the IC50 on Human PD-L1/PD-1 (setting [2]) lay within 6.76 to 30.3 nM; in assay [1] (setting [4]), 0.158 to 4.71 nM.
Take `C=CC[C@@H]1NC(=O)[C@H](Cc2c[nH]c3ccccc23)NC(=O)[C@@H]2CCCN2C(=O)[C@H](CC(C)C)NC(=O)[C@H](Cc2c[nH]cn2)NC(=O)[C@@H]2CCCN2C(=O)[C@H](CC(N)=O)NC(=O)[C@H](C)N(C)C(=O)[C@H](Cc2ccccn2)NC(=O)CSC[C@@H](C(=O)NCC(N)=O)NC(=O)[C@H](CC=C)NC(=O)[C@H](CCCC)N(C)C(=O)[C@H](CCCC)N(C)C(=O)[C@H](Cc2c[nH]c3ccccc23)NC1=O` [Example 7023] ({CH2CO}-[2Pal][NMeA]NPHLPW[AllylGly]W[NMeNle][NMeNle][AllylGly]CG-NH2; thioether N-14): the figures for the IC50 (at Human PD-L1/PD-1 (setting [2]); in assay [1] (setting [4])) were greater than 30.5 nM and greater than 74.3 nM, respectively.
For `CCCC[C@H]1C(=O)N(C)[C@@H](CCCC)C(=O)N[C@@H](C)C(=O)N[C@H](C(=O)NCC(N)=O)CSCC(=O)N[C@@H](Cc2ccc(O)cc2)C(=O)N(C)[C@@H](C)C(=O)N[C@@H](CCN)C(=O)N2CCC[C@H]2C(=O)N[C@@H](Cc2c[nH]cn2)C(=O)N[C@@H](CCC(=O)O)C(=O)N2C[C@H](O)C[C@H]2C(=O)N[C@@H](Cc2c[nH]c3ccccc23)C(=O)N[C@@H](CO)C(=O)N[C@@H](Cc2c[nH]c3ccccc23)C(=O)N1C` [Example 5087] ({CH2CO}-Y[NMeA][Dab]PHE[Hyp]WSW[NMeNle][NMeNle]ACG-NH2; thioether N-14), the IC50 at Human PD-L1/PD-1 (setting [2]) is 0.385 to 6.74 nM; in assay [1] (setting [4]), 4.78 to 72.9 nM.
The matching figures for `CCCC[C@H]1C(=O)N(C)CC(=O)N[C@@H](CC(=O)O)C(=O)N[C@@H](C(C)C)C(=O)N(C)[C@@H](Cc2ccccc2)C(=O)N[C@@H](Cc2ccc(O)cc2)C(=O)N(C)CC(=O)N[C@@H](Cc2c[nH]c3ccccc23)C(=O)N[C@@H](Cc2ccc(O)cc2)C(=O)N[C@@H](Cc2ccccc2)C(=O)N[C@H](C(=O)NCC(N)=O)CSCC(=O)N[C@@H](Cc2ccccc2)C(=O)N(C)[C@@H](Cc2ccccc2)C(=O)N1C` [Example 3537] (HELM PEPTIDE1{[O=C(C[*:3])[*:2]].F.[meF].[CCCC[C@@H](C(=O)[*:2])N(C)[*:1]].[Sar].D.V.[meF].Y.[Sar].W.Y.F.C.G.[am]}$PEPTIDE1,PEPTIDE1,1:R3-14:R3$$$V2.0): 6.76 to 30.3 nM and 4.78 to 72.9 nM.
For `CCCC[C@H]1C(=O)N(C)[C@@H](CCSC)C(=O)N[C@@H](CCCNC(=N)N)C(=O)NC(C(=O)NCC(N)=O)CSCC(=O)N[C@@H](Cc2ccc(O)cc2)C(=O)N(C)[C@@H](C)C(=O)N[C@@H](CC(N)=O)C(=O)N2CCC[C@H]2C(=O)N[C@@H](Cc2cnc[nH]2)C(=O)N[C@@H](CO)C(=O)N2C[C@H](O)C[C@H]2C(=O)N[C@@H](Cc2c[nH]c3ccccc23)C(=O)N[C@@H](CO)C(=O)N[C@@H](Cc2csc3ccccc23)C(=O)N1C` (some centres unmarked) [Example 9108] ({CH2CO}-Y[NMeA]NPHS[Hyp]WS[Bta][NMeNle][NMeM]R[ξC]G-NH2; thioether N-14), in that order: 0.385 to 6.74 nM and 0.158 to 4.71 nM.
As for `CCCC[C@H]1C(=O)N(C)CC(=O)N[C@@H](Cc2ccc(O)cc2)C(=O)N[C@@H](C(C)C)C(=O)N(C)[C@@H](Cc2ccccc2)C(=O)N[C@@H](Cc2ccc(O)cc2)C(=O)N(C)CC(=O)N[C@@H](Cc2c[nH]c3ccccc23)C(=O)N[C@@H](Cc2ccc(O)cc2)C(=O)N[C@@H](CC(C)C)C(=O)N[C@H](C(=O)NCC(N)=O)CSCC(=O)N[C@@H](Cc2ccccc2)C(=O)N(C)[C@@H](Cc2ccccc2)C(=O)N1C` [Example 3154] (HELM PEPTIDE1{[O=C(C[*:3])[*:2]].F.[meF].[CCCC[C@@H](C(=O)[*:2])N(C)[*:1]].[Sar].Y.V.[meF].Y.[Sar].W.Y.L.C.G.[am]}$PEPTIDE1,PEPTIDE1,1:R3-14:R3$$$V2.0), the IC50 was 230 nM on Human PD-L1/PD-1 (read-out: HTRF IC50 value) and 18.4 nM in assay [1] (cell line of CBA not given (LK35.2-hPD-L1 or 293T-hPD-L1), read-out: CBA IC50 value).
As for `CCCC[C@H]1C(=O)N2C[C@H](O)C[C@@H]2C(=O)N[C@@H](CC(N)=O)C(=O)N[C@@H](C(C)C)C(=O)N(C)[C@@H](Cc2ccccc2)C(=O)N[C@@H](Cc2ccc(O)cc2)C(=O)N2CCCC[C@@H]2C(=O)N[C@@H](Cc2c[nH]c3ccccc23)C(=O)N[C@@H](Cc2ccc(O)cc2)C(=O)N[C@@H](CCCCN)C(=O)N[C@H](C(=O)NCC(N)=O)CSCC(=O)N[C@@H](Cc2cc(F)c(F)c(F)c2)C(=O)N(C)[C@@H](Cc2ccccc2)C(=O)N1C` [Example 3589] ({CH2CO}-[Phe(3,4,5-F3)][NMeF][NMeNle][d(cisHyp)]NV[NMeF]Y[dPip]WYKCG-NH2; thioether N-13), the IC50 on Human PD-L1/PD-1 (setting [2]) lay in the range of 0.385 to 6.74 nM; in assay [1] (setting [4]), 0.158 to 4.71 nM.
For the compound `CCCC[C@@H]1NC(=O)[C@H](Cc2ccc(O)cc2)NC(=O)[C@H](Cc2c[nH]c3ccccc23)NC(=O)CN(C)C(=O)[C@H](Cc2ccc(O)cc2)NC(=O)[C@H](Cc2ccccc2)N(C)C(=O)[C@H](C(C)C)NC(=O)[C@H](CC(=O)O)NC(=O)CN(C)C(=O)[C@H](CCCC)N(C)C(=O)[C@H](Cc2ccccc2)N(C)C(=O)[C@H](Cc2ccccc2)NC(=O)CSC[C@@H](C(=O)NCC(N)=O)NC1=O` [Example 3097] (HELM PEPTIDE1{[O=C(C[*:3])[*:2]].F.[meF].[CCCC[C@@H](C(=O)[*:2])N(C)[*:1]].[Sar].D.V.[meF].Y.[Sar].W.Y.[Nle].C.G.[am]}$PEPTIDE1,PEPTIDE1,1:R3-14:R3$$$V2.0), the half-inhibitory concentration (IC50) at Human PD-L1/PD-1 (setting [2]) was 6.76 to 30.3 nM; in assay [1] (setting [3]) it was 4.78 to 72.9 nM.
Turning to `CCCC[C@H]1C(=O)N(C)CC(=O)N[C@@H](CC(=O)O)C(=O)N[C@@H](C(C)C)C(=O)N(C)[C@@H](Cc2ccccc2)C(=O)N[C@@H](Cc2ccc(O)cc2)C(=O)N(C)CC(=O)N[C@@H](Cc2c[nH]c3ccccc23)C(=O)N[C@@H](Cc2ccc(O)cc2)C(=O)N[C@@H](CC(C)C)C(=O)N[C@H](C(=O)NCC(N)=O)CSCC(=O)N[C@@H](Cc2ccc(Br)cc2)C(=O)N(C)[C@@H](Cc2ccccc2)C(=O)N1C` [Example 3081] ({CH2CO}-[Phe(4-Br)][NMeF][NMeNle][Sar]DV[NMeF]Y[Sar]WYLCG-NH2; thioether N-13), the concentration for half-maximal inhibition (IC50) at Human PD-L1/PD-1 (setting [2]) is greater than 30.5 nM; in assay [1] (setting [3]), 4.78 to 72.9 nM.
